“Also recorded” adds a separate entry of the source. Residues, ends and D or L forms follow the SMILES beside them. *: point of attachment. X1 = CCCCCCCCCCCCCCCC(=O)OCC(C*)OC(=O)CCCCCCCCCCCCCCC
Experiments:
[1] = system: canine peripheral blood mononuclear cells (PBMCs); experiment: IL-1β secretion by canine PBMCs (ELISA); assay type: cell-based; settings: stimulus as labelled, no hyperactivating lipid, 2 days
Procedure: (§1) Isolation of PBMCs from Whole Blood. PBMCs were isolated from whole blood using density gradient centrifugation with Ficoll-Paque PLUS (Cytivia). Whole blood was diluted 1:1 with PBS, layered on top of Ficoll-Paque PLUS and centrifuged at 1000×g for 30 minutes at room temperature. PBMCs were collected, washed twice in PBS, and incubated with Ack lysis buffer (Lonza) to remove any remaining red blood cells.
(§2) Cell Culture and Stimulation. […] Cells were plated at 1×10^5 (canine cells) or 1×10^6 (human cells) per well in 96-well flat bottom tissue culture plates. Lyophilized Vaccigrade R848 (Invivogen) was reconstituted and diluted according to manufacturer's recommendations and added to cells at a final concentration of 1 μg/mL.
Quantification of Cytokine Secretion. IL-1β secretion from human PBMCs was assessed using one of the following kits: ELISA MAX Deluxe Set Human IL-1β kit (Biolegend), Invitrogen Human IL-1β kit, or the Lumit™ Human IL-1β Immunoassay (Promega). IFNγ secretion from human PBMCs was assessed using the ELISA MAX Deluxe Set Human IFNγ (Biolegend) and TNFα secretion from human PBMCs was assessed using the Human TNFα Uncoated ELISA kit (Invitrogen). […] IL-1β secretion from canine PBMCs was assessed using the Canine IL-1β/IL-1F2 DuoSet ELISA (R&D) according to manufacturer's instructions with the following modifications: i) total sample+buffer volume for incubation was reduced from 100 μL to 50 μL; ii) sample incubation was completed overnight at 4° C. on an orbital shaker. For all ELISAs, absorbance was measured at 450 nm, with a 570 nm correction, using a Spectramax M5e plate reader (Molecular Devices). For Lumit™ assays, luminescence was measured on all wavelengths using a Spectramax M5e plate reader (Molecular Devices) with an integration time of 500 ms. […]

[2] = system: human PBMCs; experiment: Cytokine secretion (IL-1β, IFNγ, TNFα) by human PBMCs; assay type: cell-based; settings: 2 days
Procedure: as §1, §2
Quantification of Cytokine Secretion. IL-1β secretion from human PBMCs was assessed using one of the following kits: ELISA MAX Deluxe Set Human IL-1β kit (Biolegend), Invitrogen Human IL-1β kit, or the Lumit™ Human IL-1β Immunoassay (Promega). IFNγ secretion from human PBMCs was assessed using the ELISA MAX Deluxe Set Human IFNγ (Biolegend) and TNFα secretion from human PBMCs was assessed using the Human TNFα Uncoated ELISA kit (Invitrogen). ELISAs were performed according to manufacturer's instructions with the following modifications: i) total sample+buffer volume for incubation was reduced from 100 μL to 50 μL; ii) the top standard was prepared at […], with two-fold dilutions to […]; and iii) sample incubation was completed overnight at 4 C on an orbital shaker. Lumit™ assays were performed according to manufacturer's instructions. IL-1β secretion from canine PBMCs was assessed using the Canine IL-1β/IL-1F2 DuoSet ELISA (R&D) according to manufacturer's instructions with the following modifications: i) total sample+buffer volume for incubation was reduced from 100 μL to 50 μL; ii) sample incubation was completed overnight at 4° C. on an orbital shaker. For all ELISAs, absorbance was measured at 450 nm, with a 570 nm correction, using a Spectramax M5e plate reader (Molecular Devices). For Lumit™ assays, luminescence was measured on all wavelengths using a Spectramax M5e plate reader (Molecular Devices) with an integration time of 500 ms. To determine cytokine concentrations in supernatants, sample concentrations were interpolated using a standard curve via 4PL analysis on GraphPad Prism 9 (GraphPad Software). The interpolated results of samples were then adjusted for any dilutions made to the supernatant.

[3] = system: human memory CD4+ T cells; experiment: Human moDC coculture with memory CD4 T cells: cytokine secretion; assay type: cell-based; settings: moDC treated with R848 + lipid; limiting anti-CD3; 2 days after T cell addition
Description: Human moDC coculture with memory CD4 T cells. Human monocytes were isolated from leukopheresis products using Miltenyi StraightFrom LeukoPak CD14 microbeads as directed by manufacturer. Custom PBMC isolation microbead kits from Miltenyi were used to separate PBMCs from red blood cells and granulocytes from the same blood products. After PBMC purification, Miltenyi human memory CD4+ T cell isolation kits were used to negatively select the CD45RO+ fraction. Cells were cryogenically stored until ready for use in experiments.
Human monocytes were differentiated into dendritic cells as previously described using recombinant human GM-CSF and IL-4 for 6 days. moDCs were plated in R10 media at 5E4 cells/well into 96-well U-bottom microplates for hyperactivations. […] T cell stimulating anti-CD3 antibody was added into the culture (with or without blocking anti-IL-1beta antibody) prior to T cell addition. Autologous frozen memory CD4 T cells were thawed, resuspended in R10 media and added at 2.5×10^5 cells/well (ratio 1:5, DC:T cell). After two days incubation, cell culture supernatant was collected and used for measuring cytokine secretion. Commercially available kits such as Biolegend LegendPlex kits were used as directed by manufacturer's protocol to quantify cytokines of interest.
Four donors were tested with each experimental condition tested in triplicate. […]

[4] = system: human monocyte-derived dendritic cells (moDCs); experiment: Lipid titration: viability of human moDCs (CellTiter-Glo)
Procedure: Lipid Titration. After 6 days of differentiation into moDC, cells were collected and counted. Cells were replated at 100,000 cells/well in R10 media in 96-well flat bottom tissue culture-treated plates. LPS, serotype 055:B5 (Enzo Life Sciences) was added to a final concentration of 1 μg/mL in each well. After the addition of LPS, lipids were prepared. […] After two days of culture, cell cultures were used for endpoint analyses.
Endpoint Analyses. After culturing moDCs with PAMPs and DAMPs for two days, supernatant and cell samples were collected for analysis. Cells in culture were pelleted by centrifugation at 400×g for 5 min.
(§6) Quantification of Cell Viability. Cell viability was assessed by quantifying the presence of ATP as an indicator of metabolically active cells using the CellTiter-Glo Luminescent Cell Viability Assay (Promega). Metabolic activity was assessed following manufacturer's instructions. The CellTiter-Glo reagent was mixed with the cell pellets and remaining supernatant, and transferred to a white, opaque 96-well plate. Luminescence was measured on all wavelengths on a Spectramax iD3 plate reader (Molecular Devices) using an integration time of 500 ms. Percent viability was calculated relative to the control condition of moDCs treated with LPS.
Statistical Analyses. […] For each tested condition, cells from each donor were plated to be tested in triplicate.

[5] = system: human monocyte-derived dendritic cells (moDCs); experiment: Lipid titration: IL-1β secretion by LPS-activated human moDCs; assay type: cell-based; settings: for Activity Units (AU) ± SD (lipid activity index): reciprocal of lowest concentration giving IL-1β two-fold over LPS x highest IL-1β signal, lipid 1.3-82.5 μM + LPS
Procedure: (§3) Quantification of IL-1beta Secretion. IL-1beta secretion was assessed using the ELISA MAX Deluxe Set Human IL-1beta kit (Biolegend). ELISAs were performed according to manufacturer's instructions with the following modifications: i) total sample volume for incubation was reduced from […] the top standard was prepared at […], with two-fold dilutions to […]; and iii) sample incubation was completed overnight at 4 C on an orbital shaker. […] To determine IL-1beta concentration in supernatants, sample IL-1beta concentrations were interpolated using a standard curve via 4PL analysis on GraphPad Prism 9 (GraphPad Software). The interpolated results of samples were then adjusted for any dilutions made to the supernatant.

[6] = system: human monocyte-derived dendritic cells (moDCs); experiment: DAMP screen: viability of human moDCs (CellTiter-Glo)
Procedure: Danger-Associated Molecular Pattern (DAMP) Screen. After 6 days of differentiation into moDC, cells were collected and counted. Cells were plated at 100,000 cells/well in R10 media in 96-well flat bottom tissue culture-treated plates. LPS, serotype O55:B5 (Enzo Life Sciences) was added to a final concentration of 1 μg/mL in each well. […] Cells were incubated at 37° C., 5% CO2 for two days. Cell cultures were then used for endpoint analyses.
Endpoint Analyses. After culturing moDCs with PAMPs and DAMPs for two days, supernatant and cell samples were collected for analysis.
as §6

[7] = system: human monocyte-derived dendritic cells (moDCs); experiment: DAMP screen: IL-1β secretion by LPS-activated human moDCs (ELISA); assay type: cell-based
Procedure: Danger-Associated Molecular Pattern (DAMP) Screen.
as §3

[8] = system: canine peripheral blood mononuclear cells (PBMCs); experiment: Viability of canine PBMCs (CellTiter-Glo); assay type: cell-based; settings: lipid combined with R848, 2 days; relative to R848 alone
Procedure: as §1, §2
(§4) Quantification of Cell Viability.

[9] = system: non-human primate PBMCs; experiment: Cytokine secretion by non-human primate PBMCs (LegendPlex); assay type: cell-based, cynomolgus macaques
Procedure: Non-human primate PBMC hyperactivation. Whole blood from cynomolgus macaques was diluted with an equal volume of PBS. A solution of 90% Ficoll-Paque PLUS and 10% RPMI was made, and diluted whole blood was overlayed on top of the diluted Ficoll. Cells were centrifuged at 1000 rcf for 30 minutes at room temperature with no brakes. The buffy coat layer was collected and washed twice with PBS. If red blood cell contamination was present, cells were incubated in ACK lysis buffer for 2 minutes before being washed with PBS to remove lysed red blood cells.
Isolated PBMC were plated at 1×10^6 cells/well and cultured with or without hyperactivating stimuli. After 2 days incubation, cells were assessed for viability, and cell culture supernatant was used to measure cytokine output. Commercially available kits such as Biolegend LegendPlex kits were used as directed by manufacturer's protocol to quantify cytokines of interest.
PBMC were obtained from 13 cynomolgus macaques. Each activation condition was tested in triplicate, and the mean value of the triplicate is graphed for the animal sample. Repeated measures one-way ANOVA was used to test for statistical significance followed by Dunnett's multiple comparisons test.

[10] = system: human PBMCs; experiment: Viability of human PBMCs (CellTiter-Glo); assay type: cell-based; settings: 2 days post-activation; lipids combined with R848
Procedure: as §1, §2, §4

[11] = system: human monocyte-derived dendritic cells (moDCs); experiment: PAMP screen: IL-1β secretion by human moDCs with PRR agonist and 22:0 Lyso PC; assay type: cell-based; settings: 2 days
Procedure: (§5) Pathogen-Associated Molecular Pattern (PAMP) Screen. Innate immune signaling pathway agonists were purchased from Invivogen. Lyophilized stocks were reconstituted and stored according to manufacturer's instructions and at recommended concentrations. […] Innate immune signaling agonists were diluted in R10 media to the manufacturer's recommended working concentration and then added onto cells. 22:0 Lyso PC was then reconstituted from a lyophilized stock in R10 and then further diluted. The lipid was added onto cells at a final concentration of 20 μM. Cells were incubated for 2 days, then cultures were collected for endpoint analyses.
as §3

[12] = system: human monocyte-derived dendritic cells (moDCs); experiment: PAMP screen: viability of human moDCs with PRR agonist and 22:0 Lyso PC; assay type: cell-based; settings: 2 days
Procedure: as §5, §4

[13] = stimulus as labelled, no hyperactivating lipid
[14] = 10.3 μM lipid + LPS 1 μg/mL, 2 days, relative to LPS-treated moDCs, Table 1-5
[15] = 10.3 μM lipid + LPS 1 μg/mL, 2 days, Table 1-5
[16] = 20.6 μM lipid + LPS, human moDCs, 4 donors, mean (SD in wrapped line below)
[17] = 41.3 μM lipid + LPS 1 μg/mL, 2 days, relative to LPS-treated moDCs, Table 1-2
[18] = 82.5 μM lipid + LPS 1 μg/mL, 2 days, relative to LPS-treated moDCs, Table 1-1
[19] = 82.5 μM lipid + LPS, selected lipids, Table 1-3 (repeats Table 1-1)
[20] = 41.3 μM lipid + LPS 1 μg/mL, 2 days, Table 1-2
[21] = 82.5 uM lipid + R848 vs R848 alone, 2 days
[22] = high dose PAMP + 22:0 Lyso PC 20 μM

Nc1nc2c(ncn2[C@@H]2O[C@@H]3COP(=O)(O)O[C@H]4[C@@H](O)[C@H](n5cnc6c(N)ncnc65)O[C@@H]4COP(=O)(O)O[C@@H]2[C@@H]3O)c(=O)[nH]1 [2′3′cGAMP, reference compound]
IL-1β secretion (in words) [1]: neither GM-CSF nor 2′3′cGAMP induced significant IL-1β secretion | IFNγ secretion, fold change relative to R848 alone (in words) [2, 13]: neither GM-CSF nor 2′3′cGAMP elicited a substantial fold change in IFNγ secretion over R848 alone

CCCCCCCCCC(=O)OC[C@@H](O)COP(=O)([O-])OCC[N+](C)(C)C [10:0 LYSO PC]
IFN-gamma (Th1 response) from cocultured memory CD4 T cells (in words) [3]: not detected | Relative Viability (%) ± SD [4, 14]: 100.5% | Relative Viability (%) ± SD ([4]; 20.6 μM lipid + LPS, human moDCs, 4 donors, relative to LPS alone): 100.4% | IL-1β secretion [5, 15]: 35.7 pg/mL | IL-1β secretion [5, 16]: 35.2 pg/mL | Activity Units (AU) ± SD (lipid activity index) [5]: 0.00 ± 0.00 AU | Relative Viability (%) ± SD [6, 17]: 97.8% | Relative Viability (%) ± SD [6, 18]: 95.2% | Relative Viability (%) ± SD [6, 19]: 95.2% | IL-1β secretion [7, 20]: 33.3 pg/mL | IL-1β secretion [7, 19]: 37.8 pg/mL

CCCCCCCCCCCCCCCC(=O)OC[C@H](COP(=O)([O-])OCC[N+](C)(C)C)OC(=O)CCCC(=O)O [PGPC, 1-palmitoyl-2-glutaryl-sn-glycero-3-phosphocholine, reference compound]
relative cell viability (in words) [8]: somewhat toxic to canine PBMCs | Relative Viability (%) ± SD [4, 14]: 98.5% | IL-1β secretion [5, 15]: 52.8 pg/mL | IL-1β secretion [5, 16]: 69.2 pg/mL | Activity Units (AU) ± SD (lipid activity index) [5]: 3.46 ± 4.14 AU | cytokine fold changes relative to R848 alone (in words) ([9]; 41.3 uM lipid + R848): not as markedly increased | IL-1beta output (in words) ([9]; 82.5 uM lipid + R848 1 μg/mL vs R848 alone, 2 days): increased the IL-1beta output | IFN-beta secretion (in words) [9, 21]: increased | IFN-gamma secretion (in words) [9, 21]: significantly increased | IL-8 secretion (in words) [9, 21]: increased | IL-17a secretion (in words) [9, 21]: increased | IL-23 secretion (in words) [9, 21]: increased | Relative Viability (%) ± SD [6, 17]: 87.2% | Relative Viability (%) ± SD [6, 18]: 58.6% | Relative Viability (%) ± SD [6, 19]: 58.6% | moDC viability (in words) ([6]; human moDCs, lipid screens of Example 1): not observed to be toxic | IL-1β secretion (in words) ([2]; lipid 82.5 μM combined with R848 1 μg/mL): did not induce substantially higher levels of IL-1β than R848 alone | IL-1β secretion [7, 20]: 132.9 pg/mL | IL-1β secretion [7, 19]: 271.6 pg/mL | human PBMC viability (in words) [10]: not observed to be toxic

CCCCCCCCCCCCCCCC(=O)OCC(CSC[C@H](N)C(=O)N[C@@H](CO)C(=O)N[C@@H](CCCCN)C(=O)N[C@@H](CCCCN)C(=O)N[C@@H](CCCCN)C(=O)N[C@@H](CCCCN)C(=O)O)OC(=O)CCCCCCCCCCCCCCC (some centres unmarked) [Pam2CSK4] (H-C(X1)SKKKK-OH; N-terminus and C-terminus assumed)
IL-1β secretion (in words) [11, 22]: enabled IL-1β secretion; also recorded: induced IL-1β secretion | IL-1β secretion (in words) ([11]; low dose PAMP + 22:0 Lyso PC): IL-1β secretion was only observed | cell viability (in words) [12, 22]: little to no effect on cell viability | cell viability (in words) ([12]; low dose PAMP + 22:0 Lyso PC): Neither R848 nor Pam2CSK4 at the lower concentrations tested affected cell viability

CCOC(=O)C1=Cc2ccc(-c3cccc(C#N)c3)cc2N=C(N)C1 [TL8-506]
IL-1β secretion (in words) [11, 22]: enabled IL-1β secretion; also recorded: induced IL-1β secretion

GM-CSF: human GM-CSF (Peprotech), added at 10 ng/mL
IL-1β secretion (in words) [1]: neither GM-CSF nor 2′3′cGAMP induced significant IL-1β secretion | IFNγ secretion, fold change relative to R848 alone (in words) [2, 13]: neither GM-CSF nor 2′3′cGAMP elicited a substantial fold change in IFNγ secretion over R848 alone | IL-1β secretion (in words) [2, 13]: did not induce levels of IL-1β secretion from human PBMCs significantly above background levels
